Reference: patent US8796289B2 (AbbVie Inc., priority 2011, dated 2014)

Target: GST-tagged-Wee1 kinase (Homo sapiens, UniProt P30291)
Test: Wee1 time-resolved fluorescence equilibrium binding assay (displacement of Oregon Green-labeled ATP-competitive kinase probe)
Procedure: Wee1 kinase was assayed using a time-resolved fluorescence equilibrium binding assay monitoring displacement of a rapidly reversible Oregon Green-labeled ATP-competitive kinase probe (N-(2-(2-(2-(4-(4-(5-chloro-4-(2-(1-hydroxycyclobutyl)thiazol-5-yl)-1H-pyrrolo[2,3-b]pyridin-2-yl)phenyl)piperazin-1-yl)ethoxy)ethoxy)ethyl)-2′,7′-difluoro-3′,6′-dihydroxy-3-oxo-3H-spiro[isobenzofuran-1,9′-xanthene]-5-carboxamide) by competitive Wee1 inhibitors.

GST-tagged-Wee1 kinase, sequence (P30291 whole entry): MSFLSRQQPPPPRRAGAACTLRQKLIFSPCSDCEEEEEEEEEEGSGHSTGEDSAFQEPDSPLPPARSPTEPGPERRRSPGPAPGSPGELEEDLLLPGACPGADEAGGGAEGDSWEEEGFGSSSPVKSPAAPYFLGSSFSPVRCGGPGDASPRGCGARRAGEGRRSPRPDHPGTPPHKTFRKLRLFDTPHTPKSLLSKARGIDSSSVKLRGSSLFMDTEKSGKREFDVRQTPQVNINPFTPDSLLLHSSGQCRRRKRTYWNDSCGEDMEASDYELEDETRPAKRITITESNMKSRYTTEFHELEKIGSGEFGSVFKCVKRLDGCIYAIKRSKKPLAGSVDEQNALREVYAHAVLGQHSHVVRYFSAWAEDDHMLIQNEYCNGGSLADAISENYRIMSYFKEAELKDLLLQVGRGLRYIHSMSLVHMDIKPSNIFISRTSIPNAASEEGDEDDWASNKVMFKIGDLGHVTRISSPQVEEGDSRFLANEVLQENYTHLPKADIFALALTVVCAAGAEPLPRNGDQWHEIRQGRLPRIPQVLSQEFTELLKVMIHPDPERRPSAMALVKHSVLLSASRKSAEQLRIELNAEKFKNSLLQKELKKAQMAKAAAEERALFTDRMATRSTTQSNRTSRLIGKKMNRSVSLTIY

Ki [nM]	SMILES
> 3140	CN1CCN(c2ccc(Nc3ncc4c(=O)n(CC(F)(F)F)nc(CCc5ccccc5)c4n3)cc2)CC1 [Example 10, 2-{[4-(4-methylpiperazin-1-yl)phenyl]amino}-8-(2-phenylethyl)-6-(2,2,2-trifluoroethyl)pyrimido[4,5-d]pyridazin-5(6H)-one]
2.6	Cc1nn(-c2c(F)cccc2Cl)c(=O)c2cnc(Nc3ccc4c(c3)CN(C)CC43CC3)nc12 [Example 313, 6-(2-chloro-6-fluorophenyl)-8-methyl-2-[(2′-methyl-2′,3′-dihydro-1′H-spiro[cyclopropane-1,4′-isoquinolin]-7′-yl)amino]pyrimido[4,5-d]pyridazin-5(6H)-one]
7	Cc1ccccc1-n1nc(-c2ccccc2)c2nc(Nc3ccc(N4CCCC4=O)cc3)ncc2c1=O [Example 141, 6-(2-methylphenyl)-2-{[4-(2-oxopyrrolidin-1-yl)phenyl]amino}-8-phenylpyrimido[4,5-d]pyridazin-5(6H)-one]
0.69	CC(=O)N1Cc2cc(Nc3ncc4c(=O)n(-c5c(Cl)cccc5Cl)nc(C)c4n3)ccc2C(C)(C)C1 [Example 439, 2-[(2-acetyl-4,4-dimethyl-1,2,3,4-tetrahydroisoquinolin-7-yl)amino]-6-(2,6-dichlorophenyl)-8-methylpyrimido[4,5-d]pyridazin-5(6H)-one]
0.93	O=c1c2cnc(Nc3ccc4c(c3)CNCC4)nc2cnn1-c1c(Cl)cccc1Cl [Example 327, 6-(2,6-dichlorophenyl)-2-(1,2,3,4-tetrahydroisoquinolin-7-ylamino)pyrimido[4,5-d]pyridazin-5(6H)-one]
0.11	Cc1nn(-c2c(Cl)cccc2Cl)c(=O)c2cnc(Nc3ccc4c(c3)CN(C(=O)CO)CC43CC3)nc12 [Example 426, 6-(2,6-dichlorophenyl)-2-{[2′-(hydroxyacetyl)-2′,3′-dihydro-1′H-spiro[cyclopropane-1,4′-isoquinolin]-7′-yl]amino}-8-methylpyrimido[4,5-d]pyridazin-5(6H)-one]
0.09	O=c1c2cnc(Nc3ccc4c(c3)CNCC43CC3)nc2c(-c2ccncc2)nn1-c1c(Cl)cccc1Cl [Example 253, 6-(2,6-dichlorophenyl)-2-(2′,3′-dihydro-1′H-spiro[cyclopropane-1,4′-isoquinolin]-7′-ylamino)-8-(pyridin-4-yl)pyrimido[4,5-d]pyridazin-5(6H)-one]
1	Cc1cccc(-c2nn(-c3ccccc3C)c(=O)c3cnc(Nc4ccc(N5CCN(C)CC5)cc4)nc23)c1 [Example 52, 6-(2-methylphenyl)-8-(3-methylphenyl)-2-{[4-(4-methylpiperazin-1-yl)phenyl]amino}pyrimido[4,5-d]pyridazin-5(6H)-one]
1.2	Cc1nn(-c2c(Cl)cccc2Cl)c(=O)c2cnc(Nc3ccc(N4CCN(C)CC4)cc3)nc12 [Example 314, 6-(2,6-dichlorophenyl)-8-methyl-2-{[4-(4-methylpiperazin-1-yl)phenyl]amino}pyrimido[4,5-d]pyridazin-5(6H)-one]
11	C=CCn1nc(-c2ccc(-c3ncccn3)cc2)c2nc(Nc3ccc(N4CCN(C)CC4)cc3)ncc2c1=O [Example 62, 6-allyl-2-{[4-(4-methylpiperazin-1-yl)phenyl]amino}-8-[4-(pyrimidin-2-yl)phenyl]pyrimido[4,5-d]pyridazin-5(6H)-one]
140	C=CCn1nc(C)c2nc(Nc3ccc(N4CCN(C)CC4)cc3)ncc2c1=O [Example 2, 6-allyl-8-methyl-2-{[4-(4-methylpiperazin-1-yl)phenyl]amino}pyrimido[4,5-d]pyridazin-5(6H)-one]
0.07	CN1CCN(c2ccc(Nc3ncc4c(=O)n(-c5c(Cl)cccc5Cl)nc(-c5cccc(C#N)c5)c4n3)cc2)CC1 [Example 89, 3-[6-(2,6-dichlorophenyl)-2-{[4-(4-methylpiperazin-1-yl)phenyl]amino}-5-oxo-5,6-dihydropyrimido[4,5-d]pyridazin-8-yl]benzonitrile]
0.06	CN1CCN(c2ccc(Nc3ncc4c(=O)n(-c5c(Cl)cccc5Cl)nc(-c5ccsc5)c4n3)cc2)CC1 [Example 97, 6-(2,6-dichlorophenyl)-2-{[4-(4-methylpiperazin-1-yl)phenyl]amino}-8-(3-thienyl)pyrimido[4,5-d]pyridazin-5(6H)-one]
0.45	CC(=O)N1Cc2cc(Nc3ncc4c(=O)n(-c5c(Cl)cccc5Cl)nc(-c5ccncc5)c4n3)ccc2C2(CC2)C1 [Example 379, 2-[(2′-acetyl-2′,3′-dihydro-1′H-spiro[cyclopropane-1,4′-isoquinolin]-7′-yl)amino]-6-(2,6-dichlorophenyl)-8-(pyridin-4-yl)pyrimido[4,5-d]pyridazin-5(6H)-one]
0.2	Cc1ccccc1-c1nn(-c2c(Cl)cccc2Cl)c(=O)c2cnc(Nc3ccc(N4CCN(C)CC4)cc3)nc12 [Example 71, 6-(2,6-dichlorophenyl)-8-(2-methylphenyl)-2-{[4-(4-methylpiperazin-1-yl)phenyl]amino}pyrimido[4,5-d]pyridazin-5(6H)-one]
0.05	CN1Cc2cc(Nc3ncc4c(=O)n(-c5c(Cl)cccc5Cl)nc(-c5cnn(C)c5)c4n3)ccc2C2(CC2)C1 [Example 149, 6-(2,6-dichlorophenyl)-2-[(2′-methyl-2′,3′-dihydro-1′H-spiro[cyclopropane-1,4′-isoquinolin]-7′-yl)amino]-8-(1-methyl-1H-pyrazol-4-yl)pyrimido[4,5-d]pyridazin-5(6H)-one]
2	C=CCn1nc(-c2ccccc2)c2nc(Nc3ccc(N4CCN(C(C)C)CC4)c(C)c3)ncc2c1=O [Example 169, 6-allyl-2-{[4-(4-isopropylpiperazin-1-yl)-3-methylphenyl]amino}-8-phenylpyrimido[4,5-d]pyridazin-5(6H)-one]
590	CN1Cc2cc(Nc3ncc4c(=O)n(C5CCCCC5)nc(-c5ccccn5)c4n3)ccc2C(C)(C)C1 [Example 262, 6-cyclohexyl-8-(pyridin-2-yl)-2-[(2,4,4-trimethyl-1,2,3,4-tetrahydroisoquinolin-7-yl)amino]pyrimido[4,5-d]pyridazin-5(6H)-one]
0.16	Cc1nn(-c2c(Cl)cccc2Cl)c(=O)c2cnc(Nc3ccc4c(c3)C(C)(C)NCC4)nc12 [Example 444, 6-(2,6-dichlorophenyl)-2-[(1,1-dimethyl-1,2,3,4-tetrahydroisoquinolin-7-yl)amino]-8-methylpyrimido[4,5-d]pyridazin-5(6H)-one]
18	Cc1nn(-c2ncccc2Cl)c(=O)c2cnc(Nc3ccc(N4CCNCC4)cc3)nc12 [Example 399, 6-(3-chloropyridin-2-yl)-8-methyl-2-{[4-(piperazin-1-yl)phenyl]amino}pyrimido[4,5-d]pyridazin-5(6H)-one]
0.68	CCc1nn(-c2c(Cl)cccc2Cl)c(=O)c2cnc(Nc3ccc4c(c3)C(C)(C)N(C)CC4)nc12 [Example 461, 6-(2,6-dichlorophenyl)-8-ethyl-2-[(1,1,2-trimethyl-1,2,3,4-tetrahydroisoquinolin-7-yl)amino]pyrimido[4,5-d]pyridazin-5(6H)-one]
1	O=c1c2cnc(Nc3ccc4c(c3)CNCC4)nc2c(C(F)F)nn1-c1c(Cl)cccc1Cl [Example 410, 6-(2,6-dichlorophenyl)-8-(difluoromethyl)-2-(1,2,3,4-tetrahydroisoquinolin-7-ylamino)pyrimido[4,5-d]pyridazin-5(6H)-one]
0.3	Cc1nn(-c2c(Cl)cccc2Cl)c(=O)c2cnc(Nc3cccc(C(=O)NC4CCNCC4)c3)nc12 [Example 530, 3-{[6-(2,6-dichlorophenyl)-8-methyl-5-oxo-5,6-dihydropyrimido[4,5-d]pyridazin-2-yl]amino}-N-(piperidin-4-yl)benzamide]
1	Cc1cc(Nc2ncc3c(=O)n(-c4ccccc4C)nc(-c4cccs4)c3n2)ccc1N1CCN(C(C)C)CC1 [Example 119, 2-{[4-(4-isopropylpiperazin-1-yl)-3-methylphenyl]amino}-6-(2-methylphenyl)-8-(2-thienyl)pyrimido[4,5-d]pyridazin-5(6H)-one]
34	CC1(C)CNCc2cc(Nc3ncc4c(=O)n(-c5ccncc5)nc(-c5ccccn5)c4n3)ccc21 [Example 238, 2-[(4,4-dimethyl-1,2,3,4-tetrahydroisoquinolin-7-yl)amino]-8-(pyridin-2-yl)-6-(pyridin-4-yl)pyrimido[4,5-d]pyridazin-5(6H)-one]
0.3	Cc1ccccc1-n1nc(-c2ccco2)c2nc(Nc3ccc4c(c3)CN(C)CC43CC3)ncc2c1=O [Example 145, 8-(2-furyl)-2-[(2′-methyl-2′,3′-dihydro-1′H-spiro[cyclopropane-1,4′-isoquinolin]-7′-yl)amino]-6-(2-methylphenyl)pyrimido[4,5-d]pyridazin-5(6H)-one]
0.21	CC(C)n1cc(-c2nn(-c3c(F)cccc3Cl)c(=O)c3cnc(Nc4ccc5c(c4)CNCC54CC4)nc23)cn1 [Example 335, 6-(2-chloro-6-fluorophenyl)-2-(2′,3′-dihydro-1′H-spiro[cyclopropane-1,4′-isoquinolin]-7′-ylamino)-8-[1-(propan-2-yl)-1H-pyrazol-4-yl]pyrimido[4,5-d]pyridazin-5(6H)-one]
0.2	C=Cn1cc(-c2nn(-c3c(Cl)cccc3Cl)c(=O)c3cnc(Nc4ccc(N5CCN(C)CC5)cc4)nc23)cn1 [Example 201, 6-(2,6-dichlorophenyl)-8-(1-ethenyl-1H-pyrazol-4-yl)-2-{[4-(4-methylpiperazin-1-yl)phenyl]amino}pyrimido[4,5-d]pyridazin-5(6H)-one]
0.2	Cc1cc(Nc2ncc3c(=O)n(-c4ccccc4Cl)nc(-c4ccccc4)c3n2)ccc1N1CCCN(C(C)C)CC1 [Example 206, 6-(2-chlorophenyl)-2-({3-methyl-4-[4-(propan-2-yl)-1,4-diazepan-1-yl]phenyl}amino)-8-phenylpyrimido[4,5-d]pyridazin-5(6H)-one]
0.7	Cc1cc(Nc2ncc3c(=O)n(-c4ccccc4C)nc(-c4ccccc4)c3n2)ccc1N1CCN(C(C)C)CC1 [Example 170, 2-{[4-(4-isopropylpiperazin-1-yl)-3-methylphenyl]amino}-6-(2-methylphenyl)-8-phenylpyrimido[4,5-d]pyridazin-5(6H)-one]
